According to patent publication US20240382509A1, “Cannabinoids C- and O-glycosides possessing anti-proliferative and anti-metastatic properties and process for preparation thereof” (Council of Scientific and Industrial Research, priority 2021, published 2024):
Read-outs that look alike come from different tables or passages of the source.

Experiments:
Panc-1 cells [1] = assay: MTT cell viability assay, Panc-1; type: cell-based; conditions: for IC50: pancreatic cancer cells; for fold activity compared to parent compound, pancreatic cancer cells: ratio of IC50 parent vs derivative, Panc-1
Description: (§1) Cell viability assay: The cell viability was determined by the standard MTT assay method. Briefly, Panc-1, HCT-116, A549, PC3, MIAPaca-2, HT-29, MDA-MB-231, MCF7 cells, and fR2cells were seeded in 96 well tissue culture plates (Nunc) at a density of 4×10^3 cells per well and treated with varying concentrations of the test compounds in triplicates. DMSO was taken as a vehicle, and its final concentration was maintained at 0.2% in the culture medium. Doxorubicin was employed as a positive control. After 44 h of incubation, MTT dye solution was added into the medium, and cells were incubated for another 4 h at 37° C. in 5% CO2. The amount of colored formazan derivatives formed was measured by taking optical density (OD) using a microplate reader (TECAN, Infinite M200 Pro) at 570 nm, and the percentage of cell viability was calculated. The IC50 values were calculated using GraphPad Prism software (Version 5.0).

MIAPaCa-2 cells [2] = assay: MTT cell viability assay, MIAPaCa-2; type: cell-based, human
Description: as §1

HCT-116 cells = assay: MTT cell viability assay, HCT-116; type: cell-based; conditions: for IC50: colorectal adenocarcinoma cells
Description: as §1

[3] = test system: human colorectal adenocarcinoma cell line (HT-29); assay: MTT cell viability assay, HT-29; type: cell-based; conditions: for IC50: human colorectal adenocarcinoma cell line
Description: as §1

[4] = test system: lung adenocarcinoma cells (A549); assay: MTT cell viability assay, A549; type: cell-based
Description: as §1

PC3 cells = assay: MTT cell viability assay, PC3; type: cell-based
Description: as §1

MCF-7 cells = assay: MTT cell viability assay, MCF-7; type: cell-based; conditions: breast cancer cell of epithelial origin
Description: as §1

Panc-1 cells [5] = assay: Colony formation assay; type: cell-based; conditions: Panc-1, 1000 cells/well, 5 days, compared to corresponding parent compounds
Description: Colony formation assay. […] cells were seeded onto 6 well plates with a seeding density of 1000 cells/well. The cells after attachment were treated with 2 (2a, 2b), 3 (3a, 3b), 4 (4a, 4b) along with DMSO as a vehicle control and incubated for 5-6 days. After incubation, the plates were washed with ice-cold PBS, and the cells were fixed with methanol for 5 min. After fixing. the cells were stained with 0.2% crystal violet stain for 1 h. The cells were then washed with distilled water to remove the stain and were observed under an inverted microscope at 20× magnification.
The anti-proliferative properties of glycosidic derivatives were further analysed by colony formation assay in pancreatic cancer cells. The novel C-glycosidic derivatives of compounds 1, 2, 3 and 4 viz 1b, 2b, 3b & 4b display anti-proliferative property (FIG. 2). Panc-1cells were seeded onto 6 well plates at seeding density 1000 cells/well and treated with indicated concentration of 1b, 2b, 3b and 4b derivatives along with their parent compounds and DMSO as vehicle for 5 days. Upon termination the cells were stained with crystal violet and images of field were photographed.

MIAPaCa-2 cells [6] = assay: Cell scatter assay; type: cell-based, human; conditions: MIAPaCa-2, 1, 2, 3 μM, 36 h, compared to vehicle and parent molecule
Description: Cell scatter assay MIAPaCa-2 cells were seeded onto a 12 well plate at a seeding density of 500 cells/well and kept for 4-5 days, and there was the formation of scatter colonies since the cell line itself is a metastatic cell line. Accordingly, they were treated with 1 μM, 2 μM & 3 μM of compound 2, 2a, 2b, 3, 3a, 4, 4a & 4b for 36 h, and upon termination, they were washed with PBS and observed under an inverted microscope at 20× magnification (FIG. 3).

[7] = MTT cell viability assay, fR2 normal epithelial cells; type: cell-based, human; conditions: human, fR2 normal epithelial cells; MTT, 48 h; normal epithelial cell line; read-out: Cytotoxicity (IC50) fR2
Description: as §1

[8] = Homo sapiens, PANC-1, 48 h, MTT, 48 h, read-out: Cytotoxicity (IC50) Panc-1
[9] = Homo sapiens, MIA PaCa-2, 48 h, MTT, 48 h, read-out: Cytotoxicity (IC50) MIAPaCa-2
[10] = Homo sapiens, HCT-116, 48 h, MTT, 48 h, read-out: Cytotoxicity (IC50) HCT-116
[11] = Homo sapiens, HT-29, 48 h, MTT, 48 h, read-out: Cytotoxicity (IC50) HT-29
[12] = Homo sapiens, A549, 48 h, MTT, 48 h, read-out: Cytotoxicity (IC50) A549
[13] = Homo sapiens, PC-3, 48 h, MTT, 48 h, read-out: Cytotoxicity (IC50) PC3
[14] = Homo sapiens, MCF7, 48 h, MTT, 48 h, read-out: Cytotoxicity (IC50) MCF-7
[15] = Homo sapiens, MIA PaCa-2, 48 h, read-out: Cytotoxicity (IC50) MIAPaCa-2, MTT, 48 h
[16] = Homo sapiens, HCT-116, 48 h, read-out: Cytotoxicity (IC50) HCT-116, MTT, 48 h
[17] = Homo sapiens, HT-29, 48 h, read-out: Cytotoxicity (IC50) HT-29, MTT, 48 h
[18] = Homo sapiens, PC-3, 48 h, read-out: Cytotoxicity (IC50) PC3, MTT, 48 h
[19] = Homo sapiens, MCF7, 48 h, read-out: Cytotoxicity (IC50) MCF-7, MTT, 48 h

Row | SMILES | IC50 (Panc-1 cells [1]; [8]) [µM] | IC50 (MIAPaCa-2 cells [2]; [9]) [µM] | IC50 (HCT-116 cells; [10]) [µM] | IC50 [3, 11] [µM] | IC50 [4, 12] [µM] | IC50 (PC3 cells; [13]) [µM] | IC50 (MCF-7 cells; [14]) [µM] | anti-proliferative potential in colony formation assay (Panc-1 cells [5]) | cell scattering (MIAPaCa-2 cells [6]) | IC50 (MIAPaCa-2 cells [2]; [15]) [µM] | IC50 (HCT-116 cells; [16]) [µM] | IC50 [3, 17] [µM] | IC50 (PC3 cells; [18]) [µM] | IC50 (MCF-7 cells; [19]) [µM] | fold activity compared to parent compound, pancreatic cancer cells (Panc-1 cells [1]) [fold] | other results
1 | CCCCCc1cc2c(c(O)c1[C@@H]1OC(CO)[C@@H](O)C(O)C1O)-c1cc(C)ccc1C(C)(C)O2 (stereo partly drawn) [Compound 4b, Cannabinol-2-C-β-D-glucopyranoside] | 13.9 | 8.31 | 3 | 11.5 | 22.6 | 39 | 43.1 | strong anti-proliferative potential | typical clumping of scatter cells | – | – | – | – | – | – | fold anti-proliferative activity compared to parent compound, HCT-116 (HCT-116 cells; ratio of IC50 parent 4 vs derivative): > 15 fold
2 | CCCCCc1cc(O)c2c(c1)OC(C)(C)c1ccc(C)cc1-2 (single isomer, unassigned) [Compound 4, Cannabinol, reference compound] | – | – | – | – | – | – | – | – | – | 1.63 | 47.1 | 20.4 | 28 | 50.6 | – | IC50 (Panc-1 cells [1]; Homo sapiens, PANC-1, 48 h, read-out: Cytotoxicity (IC50) Panc-1, MTT, 48 h): 11.8 µM; IC50 ([4]; Homo sapiens, A549, 48 h, read-out: Cytotoxicity (IC50) A549, MTT, 48 h): 2.13 µM
3 | CCCCCc1cc(O[C@@H]2OC(CO)[C@@H](O)C(O)C2O)c2c(c1)OC(C)(C)[C@@H]1CC=C(C)C[C@@H]21 (single isomer, unassigned) [Compound 3a, Δ^8-tetrahydrocannabinol-1-O-β-D-glucopyranoside] | – | – | – | – | – | – | – | – | did not prevent cell scattering | 0.742 | 30.2 | 10.7 | 38 | 34.9 | – | IC50 (Panc-1 cells [1]; read-out: Cytotoxicity (IC50) Panc-1, MTT, 48 h): 3.16 µM; IC50 ([4]; read-out: Cytotoxicity (IC50) A549, MTT, 48 h): 2.15 µM; IC50 at 48 h [7]: > 100 µM
4 | CCCCCc1cc(O)c2c(c1)OC(C)(C)[C@@H]1CCC(C)=C[C@@H]21 [Compound 2, Δ^9-tetrahydrocannabinol, reference compound] | – | – | – | – | – | – | – | – | – | – | – | – | – | – | – | IC50 (Panc-1 cells [1]; MTT, 48 h, read-out: Cytotoxicity (IC50) Panc-1): 21.1 µM; IC50 (MIAPaCa-2 cells [2]; MTT, 48 h, read-out: Cytotoxicity (IC50) MIAPaCa-2): 4.47 µM; IC50 (HCT-116 cells; MTT, 48 h, read-out: Cytotoxicity (IC50) HCT-116): 19 µM; IC50 ([3]; MTT, 48 h, read-out: Cytotoxicity (IC50) HT-29): > 100 µM; IC50 ([4]; MTT, 48 h, read-out: Cytotoxicity (IC50) A549): 11.7 µM; IC50 (PC3 cells; MTT, 48 h, read-out: Cytotoxicity (IC50) PC3): > 100 µM; IC50 (MCF-7 cells; MTT, 48 h, read-out: Cytotoxicity (IC50) MCF-7): 43 µM
5 | CCCc1cc2c(c(O)c1[C@@H]1OC(CO)[C@@H](O)C(O)C1O)[C@@H]1CC(C)=CC[C@H]1C(C)(C)O2 (stereo partly drawn) [Compound 1b, Δ^8-tetrahydrocannabivarin-2-C-β-D-glucopyranoside] | 4.12 | 9.2 | 3.91 | 40.2 | 35.7 | 24 | > 100 | strong anti-proliferative potential | – | – | – | – | – | – | > 2 | –
6 | CCCCCc1cc2c(c(O)c1[C@@H]1OC(CO)[C@@H](O)C(O)C1O)[C@@H]1C=C(C)CC[C@H]1C(C)(C)O2 (stereo partly drawn) [Compound 2b, Δ^9-tetrahydrocannabinol-2-C-β-D-glucopyranoside] | 3.16 | 1.59 | 43.2 | 10.8 | 1.32 | 28 | 7.4 | strong anti-proliferative potential | typical clumping of scatter cells | – | – | – | – | – | 6.6 | fold anti-proliferative activity compared to parent compound, HT-29 ([3]; ratio of IC50 parent 2 vs derivative): more than 10 fold
